According to patent publication US11779555B2, “Combination of immunotherapy with local chemotherapy for the treatment of malignancies” (THE JOHNS HOPKINS UNIVERSITY, priority 2015, dated 2023):

Key:
[1] = tested on: tumor infiltrating lymphocytes; test: Flow cytometric analysis of tumor infiltrating lymphocytes (TILs)
Source text: (§1) Flow cytometric analysis of tumor infiltrating immune cells and peripheral lymphoid cell populations: At day 21 or day 30 post tumor implantation, mice were sacrificed using a lethal dose of ketamine/xylazine cocktail. The spleen, brain, cervical lymph nodes (LN), and bone marrow were harvested and passed through a 40-μm strainer. A 30%-37%-60% Percoll gradient (GE Healthcare, Buckinghamshire, UK) was used to isolate immune cell populations from brain tumors and the draining LNs. After centrifugation, the 37%-60% interface contained lymphocytes, monocytes, and microglia in the case of brain tumors, and lymphocytes and monocytes in the case of draining LNs.
(§2) Lymphocytes from all tissues were stimulated with PMA-Ionomycin and Golgi stop (eBioscience) for 4-6 hours in a 37° C. humidified incubator maintained at 5% CO2. […] For the memory T cells, lymphocytes were stained with CD62L PE (BD Biosciences) and CD44 BV421 (BD Biosciences). […] Appropriate isotype controls were used. For the adoptive transfer experiment, CD45.2 PE Clone: 104 (eBioscience) was used to stain the isolated lymphocytes.

CD3+ blood lymphocytes = test: Circulating CD3+ lymphocytes in peripheral blood (serial blood draws); assay type: in vivo, C57BL/6J mice; settings: Day 30 post implantation, end of regimen, lasting at least 2 weeks
Method: Peripheral blood was collected by cardiac puncture before harvesting other tissues at day 21 and 30. A total of 600 μL was collected from each mouse in heparin-coated tubes (BD Biosciences, Franklin Lakes, N.J.). Blood was mixed with PBS in a 1:1 ratio and overlaid onto a Ficoll-Paque Plus (GE Healthcare) base in a 1:3 ratio. After centrifugation, peripheral lymphocytes were extracted from the resulting horizon and were washed twice with PBS. In addition to the blood draws performed on days 21 or 30 post implantation, blood draws were also performed on days 26 and 41 post implantation. On these days, blood was taken via tail vein sampling and 100 μL of blood was collected for every mouse. Red blood cells were lysed using RBC Lysis Buffer (eBioscience) and subsequently stained with CD3 FITC Clone: 17A2 (eBioscience). All flow cytometry experiments were performed on a LSRII (BD Biosciences) and analysis was performed using FlowJo software (TreeStar, Ashland, Oreg.).

[2] = tested on: lymphocytes of draining lymph nodes, spleen and blood; test: Flow cytometric analysis of draining lymph nodes and peripheral lymphoid organs
Source text: as §1, with “Flow cytometric analysis of tumor infiltrating immune cells and peripheral lymphoid cell populations: At day 21 or day 30 post tumor implantation, mice were sacrificed using a lethal dose of ketamine/xylazine cocktail.” left out
as §2

effector memory T cells = test: IFNγ production of memory T cells after re-challenge; assay type: in vivo, mice; settings: twenty days after re-challenge, PMA/Ionomycin stimulation
Method: (§3) Appropriate isotype controls were used.
Re-challenge experiments: Tumor burden was assessed weekly with IVIS imaging. Mice were considered “cured” of their brain tumors following initial treatment if no evidence of tumor was present at consecutive IVIS imaging sessions, and mice were further considered long-term survivors if no tumor was detected 90 days post implantation. Long-term survivors from each experimental group were re-challenged 90 days post implantation with 300,000 GL-261 LUC cells injected intracranially in the contralateral hemisphere. Cells were prepared in […]. Naïve mice were implanted in parallel as controls, and mice were followed with weekly IVIS imaging.

OT-I T cells = test: In vivo proliferation of adoptively transferred OT-I T cells in the spleen; design: species or system mice; settings: three days after the transfer
Method: For in vivo cell proliferation tracing, OT-I RAG−/− splenocytes were labeled with cell proliferation dye eFluor450 (eBioscience, San Diego, Calif.) in the following way: Lymphocytes were isolated from spleen cells, their viability was checked post-isolation, and viable lymphocytes were washed with HBSS without Ca^2+ or Mg^2+ once in preparation for the staining. A 10 μM solution of the cell proliferation dye was made in HBSS without Ca^2+ and Mg^2+. After washing the isolated cells, the cells were reconstituted by adding the 10 μM dye solution to a concentration of 5×10^6 cells/mL. While the solution was added to the cells, the tube was gently vortexed to ensure homogeneous uptake of the dye by all cells.
The cells were incubated for 8 min in the dark at room temperature. Cells were quenched with 20 mls of HBSS with 20% FBS and were then spun at 1400 rpm for 5 min at 4° C. Cells were washed with HBSS without FBS an additional two times and cells were checked for viability. Cells were resuspended with HBSS (w/o FBS) to a concentration of 10×10^6 cells/mL. The cells were passed through a […] cell strainer to ensure they were in a single cell suspension and 100 μL of the cell suspension was injected retro-orbitally in the recipient mice immediately.

[3] = tested on: adoptively transferred ova specific (CD45.2) T cells; test: Adoptive transfer of OT-I lymphocytes in GL-261 ova tumor bearing mice; assay type: in vivo; settings: four days after adoptive transfer, three days after initiation of chemotherapy
Source text: Adoptive transfer experiments: For the adoptive transfer experiments, 5 week old female B6.SJL-Ptprca Pepcb/BoyJ mice expressing the congenic marker CD45.1 were used as the recipient mice. Inbred C57BL6/J (B6), B6.129S7-Rag1tm1Mom/J (RAG^−/−), B6.SJL-Ptprcb Pepcb/BoyJ (CD45.2) and C57BL/6-Tg(TcraTcrb)1100Mjb/J (OT-I) mice were purchased from The Jackson Laboratory. 6-8 weeks old female RAG−/− OT-I CD45.2 transgenic mice were used as the donor mice.
RAG−/− OT-I CD45.2 mice were lethally anesthetized and their spleens were harvested and passed through a 40-μM nylon mesh. Red blood cell lysis buffer was consecutively applied to remove red blood cells. Cells were counted, checked for their viability, and washed twice with PBS. Two million cells were transferred in 100 uL of PBS for every recipient mouse via retro-orbital injection.
Mice were implanted with 300,000 Gl-261-ova-luc cells at day 0 and RAG−/− OT-I CD45.2 lymphocytes were transferred at day 13: 1 day before starting treatment with chemotherapy. The experimental schedule of the GL-261-ova tumor experiments is explained in detail in FIG. 1.
as §3

bone marrow cells = test: Bone marrow cellularity and CD45+ leukocytes; assay type: in vivo, C57BL/6J mice
Source text: as §3

[4] = tested on: GL-261 LUC cells in the contralateral hemisphere; test: Tumor re-challenge of long-term survivors; assay type: in vivo, mice
Method: Re-challenge experiments: Tumor burden was assessed weekly with IVIS imaging. Mice were considered “cured” of their brain tumors following initial treatment if no evidence of tumor was present at consecutive IVIS imaging sessions, and mice were further considered long-term survivors if no tumor was detected 90 days post implantation. […] Cells were prepared in 14 of PBS. Naïve mice were implanted in parallel as controls, and mice were followed with weekly IVIS imaging.

[5] = tested on: intracranial GL-261 LUC gliomas; test: Survival of mice with intracranial GL-261 gliomas; assay type: in vivo, C57BL/6J mice; settings: Example 3; chemotherapy at day 14, post anti-PD1
Method: Tumor model: Female C57BL/6J mice (The Jackson Laboratory, Bar Harbor, Me.), 6 to 8 weeks old, were implanted (Day 0) with GL-261 LUC cells to establish intracranial gliomas, as previously described (Zeng et al., 2013). Briefly, mice were anesthetized with ketamine/xylazine (100 mg/kg ketamine, 10 mg/kg xylazine) and a small midline incision was made to expose the skull. A burr hole was then drilled directly over the striatum and 130,000 GL-261 LUC cells were implanted at a depth of 3 mm from the cortical surface. The tumor take rate was 100%. Day 7 post implantation, mice were imaged to assess the progress of tumor growth using an IVIS platform (In Vivo Imaging System, Caliper Life Sciences, Hopkinton, Mass.). Mice were then stratified into experimental treatment groups based on luminescence. Each treatment group had 5 to 15 mice in the survival experiments. […]
Surgical procedure: polymer implantation: Mice in the LC or EP treatment groups were anesthetized with ketamine/xylazine (100 mg/kg ketamine, 10 mg/kg xylazine). […] Mice were monitored for a period of 30 min after recovery for signs of neurological deficits. […]
Statistics: Survival was plotted using Kaplan-Meier curves, and curves were analyzed with the log-rank Mantel-Cox test using GraphPad Prism software (GraphPad Software, La Jolla, Calif.). […]

With `O=NN(CCCl)C(=O)NCCCl` [i.p. BCNU, BCNU] the “percent of CD4+FoxP3+ regulatory cells (Tregs) in TILs” value ([1]; day 21) was 55%, the “percentage of recovered CD8+ TILs producing IFNγ” value ([1]; day 21) was 35% and the “density of CD3+ TILs (number of cells normalized by tumor volume)” value ([1]; day 30 post implantation) was 40 cells. The “CD3+ lymphocytes in peripheral blood” value (CD3+ blood lymphocytes) was “severely lymphodepleted”, the “CD3+ cells and CD8+ IFN-γ+ cells in draining lymph nodes” value ([2]; Example 3) was “lymphodepletion of both CD3+ cells and CD8+ IFN-γ+ cells” and the “lymphocytes recovered from spleen, LN and blood vs untreated or LC treated mice” value ([2]; cured mice, 4 months from tumor implantation) was “decreased number of recovered lymphocytes”. For the same molecule, the “IFNγ production of CD8+CD44[high]CD62L[low] cells from DLNs, spleen or peripheral blood” value (effector memory T cells) was “dysfunctional IFNγ production”, the “OT-I cells divided (dilution of cell proliferation dye)” value (OT-I T cells) was 29.9% and the “CD3+CD45.2+ cells within the tumor microenvironment” value [3] was 4%. The “CD3+CD45.2+ transferred cells in the DLNs” value [3] was 3%, the “myelotoxicity (BM cellularity and CD45 leukocytes vs control)” value (bone marrow cells; Example 2) was “late myelotoxicity” and the “CD45+ bone marrow cells (leukocytes) vs control, LC or LC+anti-PD1” value (bone marrow cells; Example 3) was “decreased cell numbers”. The “bone marrow cellularity (live-dead staining)” value (bone marrow cells; Example 3) was “significant decrease in cellularity”, the “size of the spleen at necropsy vs LC and anti-PD1 treated mice” value ([4]; experimental day 104) was “significantly decreased” and the “tumor growth after re-challenge in the contralateral hemisphere” value ([4]; long term survivors) was “not able to inhibit tumor growth”. The median survival [5] was 45 days.
